Laboratory results from ChEMBL document CHEMBL4342421, “Current scenario of tetrazole hybrids for antibacterial activity” (Eur J Med Chem, 2019).
Converted amounts (≈) assume the structure as drawn.

Experiments:
Assay type in all cases: functional
Pseudomonas aeruginosa [1] = experiment: Antimicrobial activity against Pseudomonas aeruginosa
Staphylococcus aureus [2] = experiment: Antimicrobial activity against Staphylococcus aureus
Escherichia coli [3] = experiment: Antimicrobial activity against Escherichia coli
Bacillus subtilis = experiment: Antimicrobial activity against Bacillus subtilis
Candida albicans [4] = experiment: Antifungal activity against Candida albicans
Aspergillus niger [5] = experiment: Antifungal activity against Aspergillus niger
Bacillus cereus = experiment: Antimicrobial activity against Bacillus cereus assessed as zone of inhibition at 250 ug/ml; settings: read-out: IZ
Staphylococcus aureus [6] = experiment: Antimicrobial activity against Staphylococcus aureus assessed as zone of inhibition at 250 ug/ml; settings: read-out: IZ
Aspergillus niger [7] = experiment: Antifungal activity against Aspergillus niger assessed as zone of inhibition at 250 ug/ml; settings: read-out: IZ
Candida albicans [8] = experiment: Antifungal activity against Candida albicans assessed as zone of inhibition at 250 ug/ml; settings: read-out: IZ
Escherichia coli [9] = experiment: Antimicrobial activity against Escherichia coli assessed as zone of inhibition at 250 ug/ml; settings: read-out: IZ
Pseudomonas aeruginosa [10] = experiment: Antimicrobial activity against Pseudomonas aeruginosa assessed as zone of inhibition at 250 ug/ml; settings: read-out: IZ

`Cc1ccc2c(=O)c(OCc3nnn[nH]3)c(-c3ccc(F)cc3)oc2c1` gave an MIC (Pseudomonas aeruginosa [1]) of 50 to 400 mg/L (≈ 142 to 1140 µM), an MIC (Staphylococcus aureus [2]) of 50 to 400 mg/L (≈ 142 to 1140 µM) and an MIC (Escherichia coli [3]) of 50 to 400 mg/L (≈ 142 to 1140 µM). For the same compound, the MIC (Bacillus subtilis) was 50 to 400 mg/L (≈ 142 to 1140 µM).
In the case of `O=C1S/C(=C\c2ccccc2)C(=O)N1Cc1ccc(-c2ccccc2-c2nnn[nH]2)cc1`, the MIC (Escherichia coli [3]) is reported as 7.75 to 35.4 mg/L (≈ 17.6 to 80.6 µM) and the MIC (Bacillus subtilis) is reported as 7.75 to 35.4 mg/L (≈ 17.6 to 80.6 µM).
With `O=C1S/C(=C\c2ccccc2Cl)C(=O)N1Cc1ccc(-c2ccccc2-c2nnn[nH]2)cc1` the MIC (Escherichia coli [3]) was 7.75 to 35.4 mg/L (≈ 16.4 to 74.7 µM) and the MIC (Bacillus subtilis) was 7.75 to 35.4 mg/L (≈ 16.4 to 74.7 µM).
For `c1ccc2c(c1)cc(-c1nc3sccn3c1NC1CCCCC1)c1nnnn12`, the MIC (Pseudomonas aeruginosa [1]) was > 320 mg/L, the MIC (Staphylococcus aureus [2]) was > 320 mg/L and the MIC (Escherichia coli [3]) was > 320 mg/L.
In the case of `Cc1ccc2cc(C3CC(c4cccs4)=NN3C(N)=S)c3nnnn3c2c1` (stereo not given), the MIC (Pseudomonas aeruginosa [1]) is reported as 3.12 to 100 mg/L (≈ 7.94 to 254 µM), the MIC (Staphylococcus aureus [2]) is reported as 3.12 to 100 mg/L (≈ 7.94 to 254 µM) and the MIC (Escherichia coli [3]) is reported as 3.12 to 100 mg/L (≈ 7.94 to 254 µM). It also gave an MIC (Candida albicans [4]) of 3.12 to 100 mg/L (≈ 7.94 to 254 µM) and an MIC (Aspergillus niger [5]) of 3.12 to 100 mg/L (≈ 7.94 to 254 µM).
`Cc1ccc2c(c1)cc(/C=C/C(=O)c1cccs1)c1nnnn12` gave an MIC (Pseudomonas aeruginosa [1]) of 6.25 to 100 mg/L (≈ 19.5 to 312 µM), an MIC (Staphylococcus aureus [2]) of 6.25 to 100 mg/L (≈ 19.5 to 312 µM) and an MIC (Escherichia coli [3]) of 6.25 to 100 mg/L (≈ 19.5 to 312 µM). The MIC (Candida albicans [4]) was 6.25 to 100 mg/L (≈ 19.5 to 312 µM) and the MIC (Aspergillus niger [5]) was 6.25 to 100 mg/L (≈ 19.5 to 312 µM).
For `Fc1ccc2c(c1)sc1nc(-c3cc4ccccc4n4nnnc34)c(NCCc3ccccc3)n12`, the MIC (Pseudomonas aeruginosa [1]) was > 320 mg/L, the MIC (Staphylococcus aureus [2]) was > 320 mg/L and the MIC (Escherichia coli [3]) was > 320 mg/L.
With `Cc1ccc2cc(/C=C/C(=O)c3ccccn3)c3nnnn3c2c1` the MIC (Pseudomonas aeruginosa [1]) was 6.25 to 100 mg/L (≈ 19.8 to 317 µM), the MIC (Staphylococcus aureus [2]) was 6.25 to 100 mg/L (≈ 19.8 to 317 µM) and the MIC (Escherichia coli [3]) was 6.25 to 100 mg/L (≈ 19.8 to 317 µM). The MIC (Candida albicans [4]) was 6.25 to 100 mg/L (≈ 19.8 to 317 µM) and the MIC (Aspergillus niger [5]) was 6.25 to 100 mg/L (≈ 19.8 to 317 µM).
In the case of `Cc1ccc2c(c1)cc(/C=C/C(=O)c1ccc(Cl)cc1)c1nnnn12`, the MIC (Pseudomonas aeruginosa [1]) is reported as 6.25 to 100 mg/L (≈ 17.9 to 287 µM), the MIC (Staphylococcus aureus [2]) is reported as 6.25 to 100 mg/L (≈ 17.9 to 287 µM) and the MIC (Escherichia coli [3]) is reported as 6.25 to 100 mg/L (≈ 17.9 to 287 µM). It also gave an MIC (Candida albicans [4]) of 6.25 to 100 mg/L (≈ 17.9 to 287 µM) and an MIC (Aspergillus niger [5]) of 6.25 to 100 mg/L (≈ 17.9 to 287 µM).
With `c1cc(-c2nnn[nH]2)cc(-c2nnn[nH]2)c1` the MIC (Pseudomonas aeruginosa [1]) was 125 to 1000 mg/L (≈ 584 to 4670 µM), the MIC (Staphylococcus aureus [2]) was 125 to 1000 mg/L (≈ 584 to 4670 µM) and the MIC (Escherichia coli [3]) was 125 to 1000 mg/L (≈ 584 to 4670 µM).
With `CC(=O)N1N=C(Cn2cc(-c3nn(-c4ccncc4)cc3-c3nnnn3-c3ccccc3)c3cc(Cl)ccc32)OC1(C)c1ccc(C(F)(F)F)cc1` (stereo not given) the zone of inhibition at 250 µg/mL (Bacillus cereus) was 8 to 20 mm, the zone of inhibition at 250 µg/mL (Staphylococcus aureus [6]) was 8 to 20 mm and the zone of inhibition at 250 µg/mL (Aspergillus niger [7]) was 8 to 20 mm. It also gave a zone of inhibition at 250 µg/mL (Candida albicans [8]) of 8 to 20 mm, a zone of inhibition at 250 µg/mL (Escherichia coli [9]) of 8 to 20 mm and a zone of inhibition at 250 µg/mL (Pseudomonas aeruginosa [10]) of 8 to 20 mm.
For `c1ccc(CCNc2c(-c3cc4ccccc4n4nnnc34)nc3sccn23)cc1`, the MIC (Pseudomonas aeruginosa [1]) was > 320 mg/L, the MIC (Staphylococcus aureus [2]) was > 320 mg/L and the MIC (Escherichia coli [3]) was > 320 mg/L.
`Cc1ccc2c(c1)cc(C1CC(c3ccc(Cl)cc3)=NN1C(N)=S)c1nnnn12` (stereo not given) showed an MIC (Pseudomonas aeruginosa [1]) of 3.12 to 100 mg/L (≈ 7.41 to 237 µM), an MIC (Staphylococcus aureus [2]) of 3.12 to 100 mg/L (≈ 7.41 to 237 µM) and an MIC (Escherichia coli [3]) of 3.12 to 100 mg/L (≈ 7.41 to 237 µM). For the same compound, the MIC (Candida albicans [4]) was 3.12 to 100 mg/L (≈ 7.41 to 237 µM) and the MIC (Aspergillus niger [5]) was 3.12 to 100 mg/L (≈ 7.41 to 237 µM).
`Cc1ccc2cc(C3CC(c4ccccn4)=NN3C(N)=S)c3nnnn3c2c1` (stereo not given) showed an MIC (Pseudomonas aeruginosa [1]) of 3.12 to 100 mg/L (≈ 8.04 to 257 µM), an MIC (Staphylococcus aureus [2]) of 3.12 to 100 mg/L (≈ 8.04 to 257 µM) and an MIC (Escherichia coli [3]) of 3.12 to 100 mg/L (≈ 8.04 to 257 µM). It also gave an MIC (Candida albicans [4]) of 3.12 to 100 mg/L (≈ 8.04 to 257 µM) and an MIC (Aspergillus niger [5]) of 3.12 to 100 mg/L (≈ 8.04 to 257 µM).
Work on `CC(=O)N1N=C(Cn2cc(-c3nn(-c4ccncc4)cc3-c3nnnn3-c3ccc(C)cc3)c3cc(Cl)ccc32)OC1(C)c1ccc(C(F)(F)F)cc1` (stereo not given) yielded a zone of inhibition at 250 µg/mL (Bacillus cereus) of 8 to 20 mm, a zone of inhibition at 250 µg/mL (Staphylococcus aureus [6]) of 8 to 20 mm and a zone of inhibition at 250 µg/mL (Aspergillus niger [7]) of 8 to 20 mm. For the same compound, the zone of inhibition at 250 µg/mL (Candida albicans [8]) was 8 to 20 mm, the zone of inhibition at 250 µg/mL (Escherichia coli [9]) was 8 to 20 mm and the zone of inhibition at 250 µg/mL (Pseudomonas aeruginosa [10]) was 8 to 20 mm.
In the case of `COc1cc(/C=C2\SC(=O)N(Cc3ccc(-c4ccccc4-c4nnn[nH]4)cc3)C2=O)cc(OC)c1`, the MIC (Escherichia coli [3]) is reported as 7.75 to 35.4 mg/L (≈ 15.5 to 70.9 µM) and the MIC (Bacillus subtilis) is reported as 7.75 to 35.4 mg/L (≈ 15.5 to 70.9 µM).
Compound `O=C1S/C(=C\c2ccc(Cl)cc2)C(=O)N1Cc1ccc(-c2ccccc2-c2nnn[nH]2)cc1` has an MIC (Escherichia coli [3]) of 7.75 to 35.4 mg/L (≈ 16.4 to 74.7 µM) and an MIC (Bacillus subtilis) of 7.75 to 35.4 mg/L (≈ 16.4 to 74.7 µM).
For `Cc1ccc2c(c1)cc(C1CC(c3ccccn3)=NN1C(N)=S)c1nnnn12` (stereo not given), the MIC (Pseudomonas aeruginosa [1]) was 3.12 to 100 mg/L (≈ 8.04 to 257 µM), the MIC (Staphylococcus aureus [2]) was 3.12 to 100 mg/L (≈ 8.04 to 257 µM) and the MIC (Escherichia coli [3]) was 3.12 to 100 mg/L (≈ 8.04 to 257 µM). The MIC (Candida albicans [4]) was 3.12 to 100 mg/L (≈ 8.04 to 257 µM) and the MIC (Aspergillus niger [5]) was 3.12 to 100 mg/L (≈ 8.04 to 257 µM).
Compound `Cc1ccc2c(c1)cc(/C=C/C(=O)c1ccccn1)c1nnnn12` has an MIC (Pseudomonas aeruginosa [1]) of 6.25 to 100 mg/L (≈ 19.8 to 317 µM), an MIC (Staphylococcus aureus [2]) of 6.25 to 100 mg/L (≈ 19.8 to 317 µM) and an MIC (Escherichia coli [3]) of 6.25 to 100 mg/L (≈ 19.8 to 317 µM). It also gave an MIC (Candida albicans [4]) of 6.25 to 100 mg/L (≈ 19.8 to 317 µM) and an MIC (Aspergillus niger [5]) of 6.25 to 100 mg/L (≈ 19.8 to 317 µM).
Work on `Cc1ccc2cc(C3CC(c4ccccc4)=NN3C(N)=S)c3nnnn3c2c1` (stereo not given) yielded an MIC (Pseudomonas aeruginosa [1]) of 3.12 to 100 mg/L (≈ 8.07 to 258 µM), an MIC (Staphylococcus aureus [2]) of 3.12 to 100 mg/L (≈ 8.07 to 258 µM) and an MIC (Escherichia coli [3]) of 3.12 to 100 mg/L (≈ 8.07 to 258 µM). It also gave an MIC (Candida albicans [4]) of 3.12 to 100 mg/L (≈ 8.07 to 258 µM) and an MIC (Aspergillus niger [5]) of 3.12 to 100 mg/L (≈ 8.07 to 258 µM).
For `N#Cc1cn2c(NCCc3ccccc3)c(-c3cc4ccccc4n4nnnc34)nc2s1`, the MIC (Pseudomonas aeruginosa [1]) was > 320 mg/L, the MIC (Staphylococcus aureus [2]) was > 320 mg/L and the MIC (Escherichia coli [3]) was > 320 mg/L.
With `COc1ccc(Nc2c(-c3cc4ccccc4n4nnnc34)nc3sc(C#N)cn23)cc1` the MIC (Pseudomonas aeruginosa [1]) was > 320 mg/L, the MIC (Staphylococcus aureus [2]) was > 320 mg/L and the MIC (Escherichia coli [3]) was > 320 mg/L.
For `Cc1ccc2c(c1)cc(/C=C/C(=O)c1ccccc1)c1nnnn12`, the MIC (Pseudomonas aeruginosa [1]) was 6.25 to 100 mg/L (≈ 19.9 to 318 µM), the MIC (Staphylococcus aureus [2]) was 6.25 to 100 mg/L (≈ 19.9 to 318 µM) and the MIC (Escherichia coli [3]) was 6.25 to 100 mg/L (≈ 19.9 to 318 µM). It also gave an MIC (Candida albicans [4]) of 6.25 to 100 mg/L (≈ 19.9 to 318 µM) and an MIC (Aspergillus niger [5]) of 6.25 to 100 mg/L (≈ 19.9 to 318 µM).
In the case of `CC(C)(C)Nc1c(-c2cc3ccccc3n3nnnc23)nc2sccn12`, the MIC (Pseudomonas aeruginosa [1]) is reported as > 320 mg/L, the MIC (Staphylococcus aureus [2]) is reported as > 320 mg/L and the MIC (Escherichia coli [3]) is reported as > 320 mg/L.
For `Cc1ccc2cc(C3CC(c4ccc(Cl)cc4)=NN3C(N)=S)c3nnnn3c2c1` (stereo not given), the MIC (Pseudomonas aeruginosa [1]) was 3.12 to 100 mg/L (≈ 7.41 to 237 µM), the MIC (Staphylococcus aureus [2]) was 3.12 to 100 mg/L (≈ 7.41 to 237 µM) and the MIC (Escherichia coli [3]) was 3.12 to 100 mg/L (≈ 7.41 to 237 µM). For the same compound, the MIC (Candida albicans [4]) was 3.12 to 100 mg/L (≈ 7.41 to 237 µM) and the MIC (Aspergillus niger [5]) was 3.12 to 100 mg/L (≈ 7.41 to 237 µM).
